The supplement of paper PMC10307832

Experiments:
Assay in all cases: relative viability (nuclei count vs DMSO), 5 days (fraction); higher = more cells survive
Dabrafenib + Crizotinib = compound: CC(C)(C)c1nc(-c2cccc(NS(=O)(=O)c3c(F)cccc3F)c2F)c(-c2ccnc(N)n2)s1 [Dabrafenib] + C[C@@H](Oc1cc(-c2cnn(C3CCNCC3)c2)cnc1N)c1c(Cl)ccc(F)c1Cl [Crizotinib] (partner 1 µM)
Method in brief: (§1)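 Dosing by pin tool came one day after lung cancer cell lines were seeded in 1536-well plates, using either one drug or a fixed anchor-drug dose plus five library-drug doses (not always all listed) in √10 steps. After 5 days, nuclei were counted on 4× images. Relative viability is treated-well nuclei count divided by vehicle-well nuclei count, and values are medians of duplicate plates.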

Dabrafenib + Decitabine = compound: CC(C)(C)c1nc(-c2cccc(NS(=O)(=O)c3c(F)cccc3F)c2F)c(-c2ccnc(N)n2)s1 [Dabrafenib] + Nc1ncn([C@H]2C[C@H](O)[C@@H](CO)O2)c(=O)n1 [Decitabine] (partner 2 µM)
Method in brief: as §1

VX-702 + Tozasertib = compound: NC(=O)c1ccc(N(C(N)=O)c2c(F)cccc2F)nc1-c1ccc(F)cc1F [VX-702] + Cc1cc(Nc2cc(N3CCN(C)CC3)nc(Sc3ccc(NC(=O)C4CC4)cc3)n2)n[nH]1 [Tozasertib] (partner 0.1 µM)
Method in brief: as §1

VX-702 + Vorinostat = compound: NC(=O)c1ccc(N(C(N)=O)c2c(F)cccc2F)nc1-c1ccc(F)cc1F [VX-702] + O=C(CCCCCCC(=O)Nc1ccccc1)NO [Vorinostat] (partner 1 µM)
Method in brief: as §1

Cell Line	relative viability (Dabrafenib + Crizotinib; first compound 0.003 µM)	relative viability (Dabrafenib + Crizotinib; first compound 0.009487 µM)	relative viability (Dabrafenib + Crizotinib; first compound 0.03 µM)	relative viability (Dabrafenib + Crizotinib; first compound 0.09487 µM)	relative viability (Dabrafenib + Crizotinib; first compound 0.3 µM)	relative viability (Dabrafenib + Decitabine; first compound 0.003 µM)	relative viability (Dabrafenib + Decitabine; first compound 0.009487 µM)	relative viability (Dabrafenib + Decitabine; first compound 0.03 µM)	relative viability (Dabrafenib + Decitabine; first compound 0.09487 µM)	relative viability (Dabrafenib + Decitabine; first compound 0.3 µM)	relative viability (VX-702 + Tozasertib; first compound 0.02 µM)	relative viability (VX-702 + Tozasertib; first compound 0.2 µM)	relative viability (VX-702 + Tozasertib; first compound 0.6325 µM)	relative viability (VX-702 + Tozasertib; first compound 2 µM)	relative viability (VX-702 + Vorinostat; first compound 0.02 µM)	relative viability (VX-702 + Vorinostat; first compound 0.2 µM)	relative viability (VX-702 + Vorinostat; first compound 0.6325 µM)	relative viability (VX-702 + Vorinostat; first compound 2 µM)
NCI-H460	0.865	0.97	0.892	0.842	0.899	0.588	0.486	0.457	0.463	0.129	0.665	0.54	0.614	0.159	0.889	0.692	0.769	0.925
NCI-H520	0.756	0.752	0.732	0.582	0.664	0.583	0.515	0.392	0.459	0.342	0.443	0.385	0.434	0.55	0.744	0.649	0.691	0.74
NCI-H596	1.48	1.06	0.86	0.954	0.932	–	1.1	0.821	1.02	0.88	0.8	0.859	0.87	1.09	0.636	0.439	0.637	0.581
NCI-H647	–	1.05	1.04	0.976	1.04	0.445	0.366	0.308	0.358	0.234	0.323	0.248	0.208	0.436	0.563	0.499	0.304	0.897
NCI-H650	–	0.715	0.657	0.515	0.551	–	0.324	0.33	0.303	0.251	0.662	–	0.801	0.893	0.607	0.309	0.494	0.609
NCI-H661	1.07	0.958	–	0.96	1.04	0.656	0.57	0.575	0.573	0.514	0.35	0.345	0.352	0.35	0.775	0.786	0.76	0.816
NCI-H727	–	1.01	0.791	0.909	0.84	0.53	0.8	–	0.877	0.818	0.738	0.809	0.572	0.665	1.25	1.28	1.18	1.39
NCI-H838	0.858	0.905	0.759	0.829	0.979	0.436	0.466	0.497	0.428	0.335	0.233	0.285	0.303	0.291	0.737	0.702	0.751	0.787
NCI-H1355	–	1.05	0.927	–	1.03	–	0.331	0.381	0.37	0.317	0.497	0.514	0.593	0.631	0.694	0.605	0.689	0.821
NCI-H1437	0.935	0.902	0.906	0.896	0.978	0.582	0.55	0.626	0.513	0.43	0.412	0.432	0.405	0.45	0.904	0.827	0.863	1.05
NCI-H1650	1.04	1.21	0.907	0.995	1.11	0.415	0.389	0.395	0.387	0.329	0.353	0.305	0.353	0.494	0.479	0.624	0.776	0.583
NCI-H1651	0.85	0.875	0.859	0.785	0.786	0.603	0.679	0.618	0.512	0.243	0.728	0.753	0.624	0.829	0.536	0.558	0.53	0.586
NCI-H1666	0.988	–	1.09	0.87	1.17	0.69	0.813	0.789	0.674	0.751	0.593	–	0.586	0.583	1.07	0.989	0.993	0.979
NCI-H1734	–	0.702	0.475	0.696	0.687	–	0.456	0.471	0.488	0.337	0.277	0.248	0.236	0.222	0.812	0.759	0.781	0.732
NCI-H1755	0.896	0.89	0.648	0.824	0.884	0.654	0.706	0.667	0.722	0.583	0.599	0.592	0.597	0.653	0.929	0.748	0.731	0.877
NCI-H1915	0.994	0.893	0.721	0.752	0.731	0.264	0.262	0.256	0.255	0.243	0.411	0.43	0.42	0.46	0.578	0.513	0.492	0.548
NCI-H1944	1.13	1.09	1.05	0.971	1.03	0.45	0.46	0.436	0.467	0.364	0.252	0.245	0.252	0.253	0.625	0.557	0.558	0.414
NCI-H1975	0.967	0.968	0.881	0.938	0.87	0.373	0.413	0.355	0.4	0.312	0.792	0.724	0.713	0.934	0.752	0.719	0.701	0.786

Cell Line	relative viability (Dabrafenib + Crizotinib; first compound 0.003 µM)	relative viability (Dabrafenib + Crizotinib; first compound 0.009487 µM)	relative viability (Dabrafenib + Crizotinib; first compound 0.03 µM)	relative viability (Dabrafenib + Crizotinib; first compound 0.09487 µM)	relative viability (Dabrafenib + Crizotinib; first compound 0.3 µM)	relative viability (Dabrafenib + Decitabine; first compound 0.003 µM)	relative viability (Dabrafenib + Decitabine; first compound 0.009487 µM)	relative viability (Dabrafenib + Decitabine; first compound 0.03 µM)	relative viability (Dabrafenib + Decitabine; first compound 0.09487 µM)	relative viability (Dabrafenib + Decitabine; first compound 0.3 µM)	relative viability (VX-702 + Tozasertib; first compound 0.02 µM)	relative viability (VX-702 + Tozasertib; first compound 0.2 µM)	relative viability (VX-702 + Tozasertib; first compound 0.6325 µM)	relative viability (VX-702 + Tozasertib; first compound 2 µM)	relative viability (VX-702 + Vorinostat; first compound 0.02 µM)	relative viability (VX-702 + Vorinostat; first compound 0.2 µM)	relative viability (VX-702 + Vorinostat; first compound 0.6325 µM)	relative viability (VX-702 + Vorinostat; first compound 2 µM)
NCI-H1993	0.86	0.946	0.826	0.929	1.06	0.564	0.719	0.538	0.68	0.618	0.525	0.591	0.623	0.806	0.661	0.754	0.588	1.03
NCI-H2009	0.973	1.01	1.02	0.697	0.662	0.359	0.38	0.397	0.339	0.358	0.765	0.729	0.728	0.988	0.791	0.847	0.907	1.03
NCI-H2023	0.745	0.651	0.651	0.876	0.802	0.236	0.222	0.196	0.214	0.135	0.264	0.308	0.296	0.38	0.615	0.736	0.679	0.938
NCI-H2085	0.97	0.881	0.838	0.919	0.873	0.552	0.575	0.559	0.592	0.518	0.847	0.762	0.864	0.789	0.861	0.802	0.855	0.848
NCI-H2087	0.821	0.788	0.715	0.736	0.675	–	0.305	0.352	0.278	0.213	0.277	0.236	0.284	0.281	0.673	0.797	0.662	0.958
NCI-H2126	1.01	1.02	0.986	1.01	1.01	0.578	0.591	0.57	0.653	0.609	0.816	0.859	0.783	1.04	0.76	0.741	0.754	0.632
NCI-H2170	1.28	1.24	0.96	1.02	1.27	0.47	0.472	0.423	0.42	0.36	0.722	0.696	0.753	0.871	0.967	0.734	0.842	0.874
NCI-H2347	0.441	0.698	0.67	0.674	0.62	–	0.657	0.598	0.706	0.616	0.592	–	0.505	0.521	0.561	0.594	0.454	0.591
NCI-H2405	–	0.78	0.52	0.772	0.82	–	0.742	0.529	0.692	0.574	0.816	0.724	0.717	0.726	1.1	0.909	0.972	1.1
NCI-H3122	0.31	0.272	0.274	0.259	0.361	0.567	0.404	0.397	0.429	0.373	0.328	0.34	0.379	0.49	1.36	1.03	1.22	1.1
PC-3 [JPC-3]	0.95	1.03	0.978	1.02	1	–	0.865	0.872	0.812	0.804	0.883	0.896	0.922	0.957	0.929	0.773	0.908	0.886
PC-14	0.938	0.867	0.878	0.974	0.982	0.172	0.276	0.24	0.219	0.147	0.559	0.527	0.551	0.587	0.806	0.774	0.74	0.531
RERF-LC-KJ	0.845	0.791	0.769	0.779	0.846	0.792	0.724	0.655	0.731	0.705	0.538	0.477	0.541	0.463	0.693	0.686	0.716	0.694
SK-LU-1	0.742	0.989	0.769	0.778	0.891	–	0.657	0.569	0.571	0.484	0.337	0.315	0.311	0.476	0.9	0.716	0.767	1.04
SK-MES-1	0.919	0.985	1.04	0.912	0.962	0.362	0.441	0.405	0.382	0.338	0.92	0.944	0.914	0.995	1.09	1.08	1.06	1.11
SW 1573	0.802	0.94	0.697	0.755	0.782	0.448	0.545	0.488	0.589	0.357	0.145	0.168	0.173	0.243	0.937	0.793	0.707	0.8
UMC-11	0.772	0.636	0.591	0.572	0.596	0.707	0.603	0.558	0.383	0.434	0.202	0.207	0.186	0.198	0.339	0.293	0.353	0.376
